Results as given in ChEMBL document CHEMBL1122462, “Potential antiatherosclerotic agents. 4. [(Functionalized-alkyl)amino]benzoic acid analogues of cetaben” (1983).

Key:
Rattus norvegicus [1] = experiment: In vivo Sterol lowering activity at dose as 0.01% of the diet; assay type: functional
[2] = biological target: T1, Sterol O-acyltransferase 1 (Rattus norvegicus) (UniProt O70536); experiment: In vitro inhibitory activity against acyl coenzyme A:cholesterol acyltransferase; design: concentration or dose not given beside the values; details: concentration not given here
T1 sequence (whole entry): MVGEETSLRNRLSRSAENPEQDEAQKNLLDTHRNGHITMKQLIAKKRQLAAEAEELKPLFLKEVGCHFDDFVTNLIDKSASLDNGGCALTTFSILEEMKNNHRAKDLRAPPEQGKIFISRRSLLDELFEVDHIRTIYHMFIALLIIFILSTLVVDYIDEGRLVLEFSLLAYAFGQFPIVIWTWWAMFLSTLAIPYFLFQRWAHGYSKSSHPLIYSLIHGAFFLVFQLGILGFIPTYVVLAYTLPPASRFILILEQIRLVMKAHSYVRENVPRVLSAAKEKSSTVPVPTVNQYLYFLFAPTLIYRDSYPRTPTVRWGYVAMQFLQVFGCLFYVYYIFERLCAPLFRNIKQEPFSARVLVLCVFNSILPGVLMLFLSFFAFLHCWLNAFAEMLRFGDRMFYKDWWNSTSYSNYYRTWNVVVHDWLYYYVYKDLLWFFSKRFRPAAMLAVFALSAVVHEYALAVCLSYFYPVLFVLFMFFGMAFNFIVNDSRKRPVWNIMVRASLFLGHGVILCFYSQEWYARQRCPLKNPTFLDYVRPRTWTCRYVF

Rattus norvegicus [3] = experiment: In vivo sterol lowering activity, dosed as 0.03 % of the diet; assay type: functional
Rattus norvegicus [4] = experiment: In vivo Triglyceride lowering activity at dose as 0.01 % of the diet; assay type: functional
Rattus norvegicus [5] = experiment: In vivo Triglyceride lowering activity at a dose of 0.10 % of the diet; assay type: functional
Rattus norvegicus [6] = experiment: In vivo sterol lowering activity at dose of 0.10 % of the diet; assay type: functional
Rattus norvegicus [7] = experiment: In vivo Triglyceride lowering activity at dose as 0.03 % of the diet; assay type: functional

| SMILES | serum sterol level, percent of control (Rattus norvegicus [1]) [%] | inhibition [2] [%] | serum sterol level, percent of control (Rattus norvegicus [3]) [%] | serum triglyceride level (% of control) (Rattus norvegicus [4]) [%] | serum triglyceride level (% of control) (Rattus norvegicus [5]) [%] | serum sterol level, % of control (Rattus norvegicus [6]) [%] | triglyceride lowering activity (Rattus norvegicus [7]) [%] |
| --- | --- | --- | --- | --- | --- | --- | --- |
| CCCCCCCCCCC(=O)CCCCCNc1ccc(C(=O)O)cc1 | 95 | 18 | 90 | <63 | <46 | <84 | <68 |
| CCCCCCCCCCCCCCC(C)Nc1ccc(C(=O)OCC)cc1 (centres undefined) | 107 | < 18 | 100 | 81 | <55 | 93 | <55 |
| CCOC(=O)c1ccc(NCCCCCCCCCCC(F)(F)F)cc1 | <86 | < 24 | 88 | <74 | <46 | <87 | <61 |
| CCOC(=O)c1ccc(NCCCCCCCCCCCCC(C)(C)C)cc1 | <89 | 7 | <84 | 99 | 81 | <83 | 83 |
| O=C(CCCCCCCCCCOc1ccc(C(=O)O)cc1)Nc1ccc(C(=O)O)cc1 | 100 | < 33 | 93 | 116 | 93 | 100 | 106 |
| CCOC(=O)c1ccc(NCCCCCCCCCCCCCCC(C)(C)C)cc1 | <69 | 5 | <78 | 79 | <44 | <68 | <71 |
| COCCCCCCCCCCCCCCCCNc1ccc(C(=O)O)cc1 | 97 | < 43 | 96 | 76 | <52 | <86 | <73 |
| O=C(O)c1ccc(NCCCCCCCCCCCO)cc1 | 93 | < 30 | 95 | 111 | 78 | 99 | 101 |
| CCCCCCCCCCCCCCCC(=O)Nc1ccc(C(=O)O)cc1 | 111 | 16 | 118 | 103 | 105 | 112 | 94 |
| CCOC(=O)c1ccc(NCCCCCCCCCCCCCCC(C)C)cc1 | 87 | 0 | <85 | <66 | <58 | <80 | <54 |
| Br.CCOC(=O)c1ccc(NCCCCCCCCCCCSC(=N)N)cc1 | 100 | < 73 | 107 | 85 | <59 | 98 | <69 |
| CCOC(=O)c1ccc(NCCCCCCCCCCCBr)cc1 | 108 | < 61 | 94 | 83 | 74 | 101 | 83 |
| CCOC(=O)c1ccc(NCCCCCCCCCCCCCCCC(=O)O)cc1 | 100 | 4 | 106 | 99 | 147 | 106 | 133 |
| O=C(O)c1ccc(NCCCCCCCCCCC(F)(F)F)cc1 | 92 | 22 | <80 | <57 | <56 | <69 | <57 |
| CCCCCCCCCCCCCCC(C)Nc1ccc(C(=O)O)cc1 (centres undefined) | 114 | < 51 | 95 | 79 | <49 | <79 | 68 |
| CCCCCCCCCCC(N)CCCCCNc1ccc(C(=O)[O-])cc1.[Na+] (centres undefined) | 100 | 7 | 117 | 68 | 120 | 98 | 107 |
| CCCCCC(=O)CCCCCCCCCCNc1ccc(C(=O)O)cc1 | 93 | < 33 | 89 | <59 | <42 | <81 | <57 |
| CCCCCCCCCCCCCCCCN(C(=O)CCC(=O)O)c1ccc(C(=O)O)cc1 | 111 | 13 | 105 | 84 | 117 | 88 | 90 |
| O=C(O)c1ccc(NCCCCCCCCCCCS)cc1 | 92 | < 26 | 89 | <65 | <50 | <84 | <61 |
| CCOC(=O)c1ccc(NCCC[Si](C)(C)C)cc1 | 99 | < 59 | 86 | <60 | <54 | <77 | <63 |
| CCCCCCCCCCCCCCCCN(CC(=O)OCC)c1ccc(C(=O)OC)cc1 | 106 | 11 | 100 | 113 | 104 | 104 | 97 |
| O=C(O)c1ccc(NCC(F)(F)C(F)(F)C(F)(F)C(F)(F)C(F)(F)C(F)(F)C(F)(F)F)cc1 | <87 | < 42 | <66 | <51 | <31 | <59 | <40 |
